Results on 1 compound are retold here after US6362216B1, “Compounds which inhibit tryptase activity” (Array Biopharma Inc., priority 1998, dated 2002).

Common to all, as to format: biochemical
For assay [1], the target named is T1, Bovine Pancreatic Chymotrypsin (Bos taurus, UniProt P00766).
T1 construct: from tissue; host or cells: bovine pancreas
As to the kind of experiment: Bovine pancreatic chymotrypsin inhibition, N-Suc-Ala-Ala-Pro-Phe-pNA substrate. The settings on record: 100 mM Tris-HCl, pH 7.8, 10 mM CaCl2. The protocol:
(§1) Protease inhibition was assayed according to published procedures with minor modifications using various proteases and specific chromogenic peptide p-nitroanilide substrates. Assays were performed in Costar ultra-low cluster 96-well microtiter plate (Costar Corning Corp., Cambridge Mass.). Each protease was incubated with various concentrations of the test compound for 15 min. at 37° C. or as otherwise indicated, in specific assay buffer, and the residual activity was then measured by addition of the substrate. p-Nitroaniline produced by the proteolysis was determined by measuring the change in absorbance at 405 nm on a SpectraMAX 340 plate reader (Molecular devices, Sunnyvale, Calif.).
(§2) 1. The inhibition constant, Ki is calculated from individual data points using the equation for a tight-binding inhibitor (See Beith, “Proteinase Inhibitors-Proceedings of 2nd Int. Res. Conference”, Fritz, et al. eds., New York, p.4463-4469 (1974)): […]
(§3) 2. Other inhibition data (Ki>>[E]o), the Ki is calculated from using the equations for a competitive inhibitor: [formula] […]
Bovine Pancreatic Chymotrypsin activity was determined by using N-Suc-Ala-Ala-Pro-Phe-pNA in 100 mM Tris-HCl, pH 7.8, 10 mM CaCl2 (See Delmar, et al., J. Biochem. 85, 157-162 (1979)).
(§4) The inhibition constant (Ki) of the test compounds against each proteolytic enzyme was determined according to Zitnik et al., Biochem. Biophys. […]

The next assay has as its target T2, Human plasma kallikrein (Homo sapiens, UniProt P03952).
T2 construct: from tissue; host or cells: human plasma
As to the kind of experiment: Human plasma kallikrein inhibition, H-D-Prolyl-Phe-Arg-pNA substrate. The settings on record: 50 mM Tris-HCl, pH 7.8, 200 mM NaCl, 0.05% BSA. The protocol: as §1, §2, §3
Human plasma and r-tissue kallikrein activity were determined in 50 mM Tris-HCl1, pH 7.8, 200 mM NaCl, 0.05% BSA by using H-D-Prolyl-Phe-Arg-pNA and DL-Val-Leu-Arg-pNA, respectively (See Lottenberg, et al., Meth. Enzymol. 80, 341-361 (1981)). […]

Another assay concerns the target T3, Human plasma plasmin (Homo sapiens, UniProt P00747).
T3 construct: from tissue; host or cells: human plasma
Briefly: Human plasma plasmin inhibition, Tosyl-Gly-Pro-Lys-pNA substrate. The note with it: 100 mM Tris-HCl, pH 7.4, 100 mM NaCl, 0.05% Triton X-100. As for the experimental part:
as §1, §2
(§5) 2. Other inhibition data (Ki>>[E]o), the Ki is calculated from using the equations for a competitive inhibitor: [formula]
Human plasma plasmin activity was determined by using Tosyl-Gly-Pro-Lys-pNA in 100 mM Tris-HCl, pH 7.4, 100 mM NaCl, 0.05% Triton X-100 (See Lottenberg, et al., Meth. Enzymol. 80, 341-361 (1981)).
as §4

For a further assay, the target named is T4, Human plasma factor Xa (Homo sapiens, UniProt P00742).
T4 construct: from tissue; host or cells: human plasma
T4 sequence (P00742 235-488 limits assumed): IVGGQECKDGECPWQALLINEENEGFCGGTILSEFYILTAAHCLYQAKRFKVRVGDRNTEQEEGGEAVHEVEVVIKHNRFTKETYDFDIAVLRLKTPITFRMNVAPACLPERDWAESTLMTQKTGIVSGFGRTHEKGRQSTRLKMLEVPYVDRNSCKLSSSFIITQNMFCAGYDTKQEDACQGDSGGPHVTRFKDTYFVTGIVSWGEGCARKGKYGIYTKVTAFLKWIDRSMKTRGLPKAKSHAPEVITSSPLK
T4 sequence (P00742 41-179 partner limits assumed): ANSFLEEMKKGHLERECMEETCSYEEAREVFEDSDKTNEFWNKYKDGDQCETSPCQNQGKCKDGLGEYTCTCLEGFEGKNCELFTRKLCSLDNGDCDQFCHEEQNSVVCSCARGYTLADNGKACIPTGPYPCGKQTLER
As to the kind of experiment: Human plasma factor Xa inhibition, N-Benzoyl-Ile-Glu-Gly-Arg-pNA substrate. The settings on record: 50 mM Tris-HCl, pH 7.8, 200 mM NaCl, 0.05% BSA. As for the experimental part: as §1, §2, §3
Human plasma factor Xa activity was determined by using N-Benzoyl-Ile-Glu-Gly-Arg-pNA in 50 mM Tris-HCl, pH 7.8, 200 mM NaCl, 0.05% BSA (See Lottenberg, et al. Meth. Enzymol. 80, 341-361 (1981)).
as §4

The target in another assay is T5, Human lung tryptase.
T5 construct: Human lung tryptase purchased from Cortex Biochem (San Leandro, Calif.) was purified further on a Superdex 200 gel-filtration column
Briefly: Human lung tryptase inhibition, chromogenic GPR-pNA substrate. The protocol:
as §1
1. The inhibition constant, Ki is calculated from individual data points using the equation for a tight-binding inhibitor (See Beith, “Proteinase Inhibitors-Proceedings of 2nd Int. Res. Conference”, Fritz, et al. eds., New York, p.4463-4469 (1974)):
vi/vo=[((Ki′+[I]+[E]o)^2−4[I]o[E]o)^½(Ki′+[I]o−[E]o)]/2[E]o
where Ki′ is apparent inhibition constant; vi and vo are the inhibited and uninhibited rates, respectively; [I]o and [E]o are the total concentrations of inhibitor and enzyme, respectively.
[note: [E]o is determined by active site titration of enzyme]
The Ki values are obtained by correcting Ki ′ values for the effect of substrate concentration according to: [formula]
as §5
IC50 is determined by fitting the individual inhibition data point to Sigmoid or four-parameter curve-fit equations.
Human lung tryptase purchased from Cortex Biochem (San Leandro, Calif.) was purified further on a Superdex 200 gel-filtration column. The active-site concentration of the enzyme was determined by spectrophotometric titration with 4-nitrophenyl 4′-guanidinobenzoate according to Schwartz, et al., J. Immunol., 114, 2304-2311 (1990). Tryptase activity was measured according to the procedures of Schwartz, et al., J. Biol. Chem., 261, 7372-7379 (1986) (See also, Schwartz, L. B., Methods In Enzymology, 244, 88 (1994)) with minor modifications, using Tosyl-Gly-Pro-Arg-p-nitroanilide (“GPR-pNA”, Sigma Chemical Co., St. Louis, Mo., T-1637) as a chromogenic substrate. The reaction was performed in 50 mM Tris-HCl, pH 8.0, containing 150 mM NaCl and 0.02% Triton X-100 at 37° C. in Costar ultra-low cluster 96-well microtiter plates (Costar Corning Corp., Cambridge, Mass.). The amount of pNA produced by tryptase was determined by measuring the change in absorbance at 405 nm on a SpectraMAX 340 plate reader (Molecular devices, Sunnyvale, Calif.). The Km for the substrate was determined by Lineweaver-Burk analysis from initial velocities of substrate hydrolysis. The inhibition assay was carried out in a total volume of 200 μL. Tryptase (30 μL-final concentration 1 nM) was incubated with various concentrations of sample compound (50 μL) to be tested in the above assay buffer for 5 min. The reaction was started by the addition of substrate GPR-pNA (40 μL-final concentration 320 μM), and the residual activity was measured after 15 min. of incubation. The inhibition constant, Ki, was determined by fitting the inhibition data to a two-site competitive binding equation using data analysis program GraphPad PRISM (GraphPad Software, Inc., San Diego, Calif.).
The inhibition constant (Ki) of the test compounds against each proteolytic enzyme was determined according to Zitnik et al., Biochem. Biophys. Res. Commun. 232, 687-697 (1997)).

T3 sequence (P00747 581-810 limits assumed): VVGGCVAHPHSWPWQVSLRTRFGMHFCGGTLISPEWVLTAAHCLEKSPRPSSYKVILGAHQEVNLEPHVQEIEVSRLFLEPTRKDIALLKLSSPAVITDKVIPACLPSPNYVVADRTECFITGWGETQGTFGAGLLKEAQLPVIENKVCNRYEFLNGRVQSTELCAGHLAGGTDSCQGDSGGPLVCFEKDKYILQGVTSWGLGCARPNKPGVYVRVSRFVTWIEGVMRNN
T3 sequence (P00747 97-580 partner limits assumed): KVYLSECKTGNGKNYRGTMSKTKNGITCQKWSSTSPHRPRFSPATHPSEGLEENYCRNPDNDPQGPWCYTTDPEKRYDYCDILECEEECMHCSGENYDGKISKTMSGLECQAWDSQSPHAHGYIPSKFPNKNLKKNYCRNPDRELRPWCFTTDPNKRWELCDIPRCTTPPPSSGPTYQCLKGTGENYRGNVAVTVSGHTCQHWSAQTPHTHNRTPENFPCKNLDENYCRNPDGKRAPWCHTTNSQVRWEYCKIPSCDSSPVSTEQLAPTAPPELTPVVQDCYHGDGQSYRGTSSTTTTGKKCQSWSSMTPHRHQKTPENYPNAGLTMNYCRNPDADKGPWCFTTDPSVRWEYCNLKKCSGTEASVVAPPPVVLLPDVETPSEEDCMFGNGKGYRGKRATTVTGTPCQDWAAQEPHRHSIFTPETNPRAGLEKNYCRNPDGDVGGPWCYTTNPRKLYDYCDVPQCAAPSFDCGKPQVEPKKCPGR
T2 sequence (P03952 391-638 limits assumed): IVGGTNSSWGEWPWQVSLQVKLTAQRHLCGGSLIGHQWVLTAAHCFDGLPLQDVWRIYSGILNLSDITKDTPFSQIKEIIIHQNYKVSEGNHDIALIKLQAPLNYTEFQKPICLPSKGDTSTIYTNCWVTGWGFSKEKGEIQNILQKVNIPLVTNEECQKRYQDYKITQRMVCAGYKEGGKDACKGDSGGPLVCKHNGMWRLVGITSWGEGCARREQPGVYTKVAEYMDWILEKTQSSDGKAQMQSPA
T2 sequence (P03952 20-390 partner limits assumed): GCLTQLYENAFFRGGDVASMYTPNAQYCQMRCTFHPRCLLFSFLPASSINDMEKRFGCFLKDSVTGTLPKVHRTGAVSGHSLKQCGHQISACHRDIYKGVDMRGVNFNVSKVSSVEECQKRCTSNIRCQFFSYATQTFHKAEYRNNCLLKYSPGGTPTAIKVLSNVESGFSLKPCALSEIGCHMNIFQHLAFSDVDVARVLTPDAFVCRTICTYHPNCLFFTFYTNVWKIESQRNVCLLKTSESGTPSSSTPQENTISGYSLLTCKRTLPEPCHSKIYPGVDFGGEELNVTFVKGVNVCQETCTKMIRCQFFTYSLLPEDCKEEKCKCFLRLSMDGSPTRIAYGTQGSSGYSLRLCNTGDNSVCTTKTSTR

For the compound `Cc1cc2cc(CNC(=O)Cc3cc4cc(C(=N)N)ccc4s3)ccc2[nH]1` [drawing 17 Benzthiophene 5-carboxamidine n=1], the Ki in assay [1] was > 100 µM; on Human plasma kallikrein it was 1.6 µM; at Human plasma plasmin, 2.7 µM; at Human plasma factor Xa it was 17.7 µM; on Human lung tryptase (the 5th table, unit inferred) it was 0.041 µM; at Human lung tryptase (tryptase 1 nM, GPR-pNA 320 μM, 50 mM Tris-HCl pH 8.0, 37° C.), 0.041 µM.
